{"source": "paper PMC3984256", "about": "“A PCNA-Derived Cell Permeable Peptide Selectively Inhibits Neuroblastoma Cell Growth” (PLoS ONE, 2014)", "key": {"[1]": {"system": "xenograft tumors derived from the SK-N-BE2(c) cells", "experiment": "SK-N-BE(2)c xenograft tumor model in nude mice", "type": "in vivo, mouse", "conditions": "n = 10/group, intratumoral injection 3 times a week, vs PBS or R9-srbPep", "method": "All experiments involving live animals were carried out in strict accordance with the recommendations in the Guide for the Care and Use of Laboratory Animals of the National Institutes of Health. The protocol (#11034) was reviewed and approved by the City of Hope Institutional Animal Care and Use Committee. Nude mice 6 weeks of age were purchased from the Jackson Laboratory (Bar Harbor, ME). SK-N-BE(2)c cells were harvested and washed twice in PBS. Cells were suspended in Matrigel (BD Biosciences) at 5×10^7/ml. 0.1 ml of suspended cells was subcutaneously injected into the right flank of each of 30 nude mice. Seven days after tumor inoculation, mice were randomly grouped into three groups with 10 mice in each group. The mice were treated with PBS, R9-srbPep, or R9-caPep 3 times a week by intratumoral injection. Tumor growth was measured weekly as well as at the end of the experiment by a dial caliper. Tumor volumes were estimated based on the length (L) and width (W) of the tumors (V = L×W^2×0.5). At the end of the experiment, tumors were isolated from sacrificed mice and their masses were measured."}, "panel of NB cell lines": {"system": "panel of NB cell lines", "type": "cell-based, human", "conditions": "72 h", "method": "The human NB cell lines, SK-N-DZ, SK-N-BE(2)c, SK-N-AS, SK-N-SH, and SK-N-FI were obtained from the American Type Culture Collection (Rockville, MD). Cells were maintained in DMEM with 10% fetal bovine serum (FBS), 100 units/ml penicillin, and 100 µg/ml streptomycin in the presence of 5% CO2 at 37°C. Human PBMCs from a healthy donor were purchased from Sanguine BioSciences (Valencia, CA) and grown in RPMI1640 with10% FBS, 100 units/ml penicillin, 100 µg/ml streptomycin, and 10 ng/ml IL-2 in the presence of 5% CO2 at 37°C. Human embryonic progenitor cell line 7SM0032 was acquired from Millipore (Billerica, MA) and grown in the hEPM-1 Media Kit purchased from the same company.\nTo measure cell growth, cells were seeded at 3×10^4/ml. After being allowed to attach overnight, cells were treated with various concentrations of the peptides for 72 h. Cell growth was measured by the CellTitor-Glo assay (Promega, Madison, WI) according to manufacturer's instruction. To measure apoptosis, cells were seeded at 1×10^5/ml onto a chamber slide. Once attached, cells were treated with the peptides for 48 h. Cells were fixed and analyzed by a TUNEL assay using the TMR red in situ cell death detection kit (Roche Diagnostics, Indianapolis, IN)."}, "[2]": {"system": "non-malignant 7SM0032 cells", "experiment": "Cell cycle analysis by PI flow cytometry, 7SM0032", "type": "cell-based, human", "conditions": "7SM0032, same treatment (40 µM, 48 h), vs NB cells", "method": "Cells were seeded at 1×10^5/ml. Once attached, cells were treated with or without R9-caPep for 48 hours. Cells were fixed in 60% ethanol and stained with propidium iodide (PI). The cellular PI fluorescence intensity was determined by flow cytometry. The flow cytometry data were analyzed by the FlowJo program to model various cell populations."}, "[3]": {"system": "SSA-mediated DSB repair, U2OS-derived SA-GFP cells", "experiment": "DSB repair reporter assay, SSA (SA-GFP)", "type": "cell-based", "conditions": "30 µM, GFP-positive cells 3 d after I-SceI transfection, normalized to R9-srbPep, triplicates", "method": "(§1) The plasmid pCBASce expresses the rare cutting I-SceI meganuclease. The U2OS-derived cell lines, DR-GFP, EJ5-GFP, and SA-GFP contain a stably transfected reporter gene for DSB repair mediated by HR, end joining (EJ), and single-strand annealing (SSA), respectively. These cell lines were cultured in DMEM medium with 10% FBS at 37°C in the presence of 5% CO2.\n(§2) DR-GFP, EJ5-GFP, and SA-GFP cell lines were seeded at 2.5×10^4 cells/cm^2 in a 12-well plate. Once attached overnight, cells were transfected with 1.2 µg of the pCBASce I-SceI expression plasmid mixed with 3.6 µl of Lipofectamine 2000 (Invitrogen) in 200 µl of Optimem media (Invitrogen). After incubation for 3 h, the media containing transfection complexes was aspirated and replaced with fresh media containing 30 µM of the peptides. The HR, EJ, and SSA-mediated DSB repair, indicated by the restoration of a functional GFP gene in the respective cell lines, were quantified by measuring the relative abundance of GFP-positive cells by flow cytometry 3 d after transfection."}, "[4]": {"system": "HR-mediated DSB repair, U2OS-derived DR-GFP cells", "experiment": "DSB repair reporter assay, HR (DR-GFP)", "type": "cell-based", "conditions": "30 µM, GFP-positive cells 3 d after I-SceI transfection, normalized to R9-srbPep, triplicates", "method": "as §1, §2"}, "[5]": {"system": "breast, lung, and pancreatic cancer cell lines", "experiment": "Toxicity to breast, lung, and pancreatic cancer cell lines (data not shown)", "type": "cell-based", "conditions": "in comparison with non-malignant cell lines of respective tissue origins"}, "[6]": {"system": "PCNA and POLD3 co-localization in SK-N-AS NB cells", "experiment": "PCNA/POLD3 co-localization, immunofluorescence", "type": "cell-based, human", "conditions": "synchronized, 30 µM peptide 6 h after mimosine release", "method": "Cells were seeded at 1×10^5/ml onto a chamber slide and were allowed to attach overnight. To analyze the interaction of PCNA with FEN1, LIGI, or Pol ä, we first synchronize cells at the G1/S boundary. The synchronization is achieved by starving cells in medium containing 0.25% FBS for 24 h. Cells were further cultured in the complete medium containing 400 µM of mimosine for 24 h. To release cells into S phase, cells were washed and incubated in mimosine-free medium containing 30 µM R9-caPep or R9-srbPep for 6 h. We pre-determined that the majority of cells were in the S-phase 6 h after mimosine was removed (data not shown). Cells were fixed in ice-cold methanol:acetone (50%:50%) for 10 min or in 4% paraformaldehyde for 20 min at room temperature. Cells were incubated with a goat polyclonal anti-PCNA antibody (Santa Cruz) and a mouse monoclonal anti-FEN1 antibody (Santa Cruz), a mouse anti-POLD3 antibody (Sigma, St. Louis, MO), or a mouse anti-LIGI antibody (Abcam, Cambridge, MA) for 1 h at room temperature. After being washed with PBS, cells were incubated with Alexa Fluor 488 conjugated anti-mouse IgG and Alexa Fluor 555 conjugated anti-goat IgG antibodies (Invitrogen, Grand Island, NY) for 1 h. Cells were mounted in Vectashield with DAPI (Vector Labs, Burlingame, CA) and visualized by a confocal microscope."}}, "note": "“Also recorded” adds a separate entry of the source. Where a SMILES comes first, the peptide text is derived from it. [ ]: non-standard residue; d: D form.", "data": [{"smiles": "CC[C@H](C)[C@H](NC(=O)CNC(=O)[C@H](CC(C)C)NC(=O)[C@H](CS)NC(=O)[C@H](CS)NC(=O)[C@@H](CCCNC(=N)N)NC(=O)[C@@H](CCCNC(=N)N)NC(=O)[C@@H](CCCNC(=N)N)NC(=O)[C@@H](CCCNC(=N)N)NC(=O)[C@@H](CCCNC(=N)N)NC(=O)[C@@H](CCCNC(=N)N)NC(=O)[C@@H](CCCNC(=N)N)NC(=O)[C@@H](CCCNC(=N)N)NC(=O)[C@H](N)CCCNC(=N)N)C(=O)N1CCC[C@H]1C(=O)N[C@@H](CCC(=O)O)C(=O)N[C@@H](CCC(N)=O)C(=O)N[C@@H](CCC(=O)O)C(=O)N[C@@H](Cc1ccc(O)cc1)C(=O)O", "note": "[R9-caPep] (H-[dR][dR][dR][dR][dR][dR][dR][dR][dR]CCLGIPEQEY-OH; N-terminus and C-terminus assumed)", "values": [{"measurement": "tumor growth (tumor mass)", "setting": "[1]; end of experiment", "result": "significantly and nearly completely inhibited tumor growth"}, {"measurement": "tumor growth (tumor volume)", "setting": "[1]; ** p<0.01", "result": "significantly and nearly completely inhibited tumor growth"}, {"measurement": "IC50", "setting": "panel of NB cell lines", "result": "10 to 32", "unit": "µM"}, {"measurement": "sensitivity of MYCN-amplified vs. non-amplified NB cell lines", "setting": "panel of NB cell lines; CellTiter-Glo", "result": "NB cell lines with MYCN amplification were uniformly more sensitive to R9-caPep than NB cell lines without MYCN amplification"}, {"measurement": "effect on cell cycle progression in non-malignant cells", "setting": "[2]", "result": "significantly less effect on cell cycle progression and cell survival"}, {"measurement": "SSA-mediated DNA repair", "setting": "[3]", "result": "only small effects on EJ or SSA; also recorded: slightly enhances DNA repair through SSA"}, {"measurement": "HR-mediated DNA repair", "setting": "[4]", "result": "significantly inhibited HR-mediated DNA repair"}, {"measurement": "toxicity to breast, lung, and pancreatic cancer cell lines vs non-malignant lines", "setting": "[5]", "result": "selectively toxic to breast, lung, and pancreatic cancer cell lines"}, {"measurement": "recruitment of POLD3 to PCNA", "setting": "[6]", "result": "did not seem to affect the recruitment of POLD3 to PCNA"}]}]}
